According to patent US20240174690A1, “ANNULATED 2-AMINO-3-CYANO THIOPHENES AND DERIVATIVES FOR THE TREATMENT OF CANCER” (BOEHRINGER INGELHEIM INTERNATIONAL GMBH, priority 2021, published 2024):
Converted amounts (≈) assume the structure as drawn. Like-named read-outs stand apart in the source and are kept apart here.

Tests used:
[1] = Solubility measurement (DMSO solution method), McIlvaine buffer pH 4.5 or 6.8; format: physicochemical; conditions: aqueous buffer, kinetic from dmso stock, DMSO stock diluted to 250 μM, 24 h shaking at ambient temperature
Summary of the method: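 DMSO stock diluted into McIlvaine buffer, pH 4.5 or 6.8, to 250 µM final, shaken 24 h at ambient temperature. Precipitate removed by filtration; filtrate quantified by LC-UV against a fully dissolved reference in acetonitrile/water 1:1.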

[2] = test system: KRAS G12V-dependent Ba/F3 cells; test: Ba/F3 proliferation assay, KRAS G12V; format: cell-based; conditions: Mus musculus, BaF3, 72 h, AlamarBlue;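 further: proliferation IC50 in KRAS G12V-dependent Ba/F3 cells read by AlamarBlue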
Summary of the method: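 Viability is measured as AlamarBlue fluorescence in Ba/F3 cells that depend on a transduced mutant KRAS isoform for growth without IL-3. Each treatment is run in technical duplicate, and dose-response curves are fitted.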

NCI-H358 cells = test: NCI-H358 CTG proliferation assay (120 h) (NSCLC, G12C); format: cell-based, human; conditions: Homo sapiens
Summary of the method: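 NCI-H358 cells (KRAS G12C) were seeded at 2000/well (assay 1) or 200/well (assay 2) in RPMI-1640 + 10% FCS and dosed with a logarithmic series, DMSO-normalized. After 120 h, viability was read by CellTiter-Glo luminescence as percent of DMSO control, with a T0 read at dosing. IC50 came from a four-parameter fit.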

NCI-H2122 cells = test: NCI-H2122 CTG proliferation assay (120 h) (NSCLC, G12C); format: cell-based; conditions: Homo sapiens
Experimental: NCI-H2122 CTG Proliferation Assay (120 h) (NSCLC, G12C)
The CTG assay is designed to measure quantitatively the proliferation of NCI-H2122 cells (ATCC CRL-5985), using the CellTiter Glow Assay Kit (Promega G7571). Cells are grown in RPMI medium (ATCC) supplemented with Fetal Calf Serum (Life Technologies, Gibco BRL, Cat. No. 10270-106). On “day 0” 200 NCI-H2122 cells are seeded in 60 μL RPMI ATCC+10% FCS+Penstrep in a black 384-well plate, flat and clear bottom (Greiner, PNr. 781091). Cells are then incubated in the plates at 37° C. in a CO2 incubator overnight. On day 1, compounds (10 mM stock in DMSO) are added with the ECHO acoustic liquid handler system (Beckman Coulter), including DMSO controls. Plates are incubated for 120 h, and cell viability is measured using CellTiter-Glo luminescent cell viability reagent (Promega product code G7570). Viability (stated as percent of control) is defined as relative luminescence units RLU of each well divided by the RLU of cells in DMSO controls. IC50 values are determined from viability measurements by non-linear regression using a four parameter model.

SK-CO-1 cells = test: SK-CO-1 CTG proliferation assay (120 h) (CRC, G12V); format: cell-based; conditions: Homo sapiens; SK-CO-1 cells (CRC, G12V), CTG 120 h
Experimental: SK-CO-1 CTG Proliferation Assay (120 h) (CRC, G12V)
SK-CO-1 cells (ATCC HTB-39) are dispensed into 384-well plates, flat and clear bottom (Greiner, PNr. 781091) at a density of 500 cells per well in 60 μL EMEM (Sigma M5650)+10% Fetal Calf Serum (HyClone, PNr.: SH30084.03) and incubated at 37° C. in a CO2 incubator overnight. The next day, compounds (10 mM stock in DMSO) are added with the ECHO acoustic liquid handler system (Beckman Coulter), including DMSO controls. Plates are incubated for 120 h, and cell viability is measured using CellTiter-Glo luminescent cell viability reagent (Promega product code G7570). Viability (stated as percent of control) is defined as relative luminescence units RLU of each well divided by the RLU of cells in DMSO controls. IC50 values are determined from viability measurements by non-linear regression using a four-parameter model.

[3] = Plasma protein binding assay (PPB), equilibrium dialysis, 10% FCS in PBS; format: in vitro ADME; conditions: bovine, read-out: PPB 10% FCS (% fu)
Summary of the method: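 Equilibrium dialysis (5-10 kg/mol cut-off membrane) of 1-10 μmol/L test compound in 10% FCS/PBS against PBS with or without dextran, 3-5 h at 37° C. Compound in each chamber quantified by LC-MS after protein precipitation; fu calculated from Cserum and Cbuffer.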

[4] = McIlvaine buffer pH 4.5, read-out: solubility pH 4.5
[5] = McIlvaine buffer pH 6.8, read-out: solubility pH 6.8
[6] = assay 2, CTG, read-out: H358 (assay 2) IC50
[7] = assay 1, CTG, read-out: H358 (assay 1) IC50

Compound	solubility at 24 h [1, 4] [µg/mL]	solubility at 24 h [1, 5] [µg/mL]	IC50 [2] [µM]	IC50 (NCI-H358 cells; [6]) [µM]	IC50 (NCI-H2122 cells) [µM]	IC50 (SK-CO-1 cells) [µM]	fraction unbound [3]	IC50 (NCI-H358 cells; [7]) [µM]
C[C@H](Oc1cc(N2CCN3CCC3C2)nc(-c2onc3c2CCC[C@@]32CCCc3sc(N)c(C#N)c32)n1)[C@@H]1CCCN1C (some centres unmarked) [I-9]	> 149	> 147	0.496	1.31	3.34	10.8	0.8	–
C[C@H](Oc1cc(N2CCC(C#N)C2)nc(-c2noc3c2CCC[C@@]32CCCc3sc(N)c(C#N)c32)n1)[C@@H]1CCCN1C (some centres unmarked) [II-99]	115 (≈ 197 µM)	84 (≈ 144 µM)	0.035	1.34	1.17	0.159	0.11	–
C[C@H](Oc1cc(C2=CCOCC2)nc(-c2noc3c2CCC[C@@]32CCCc3sc(N)c(C#N)c32)n1)[C@@H]1CCCN1C [II-67]	98 (≈ 171 µM)	41 (≈ 71.6 µM)	0.015	1.04	1.3	0.06	0.23	–
C[C@H](Oc1cc(C2CCOCC2)nc(-c2noc3c2CCC[C@@]32CCCc3sc(N)c(C#N)c32)n1)[C@@H]1CCCN1C [II-76]	> 122	104 (≈ 181 µM)	0.019	0.507	1.3	0.12	0.61	–
Cc1cn(-c2cc(O[C@@H](C)[C@@H]3CCCN3C)nc(-c3noc4c3CCC[C@@]43CCCc4sc(N)c(C#N)c43)n2)nn1 [II-106]	107 (≈ 187 µM)	13 (≈ 22.7 µM)	0.023	2.25	2.86	0.491	0.2	–
C[C@H](Oc1cc(-c2cncnc2)nc(-c2noc3c2CCC[C@@]32CCCc3sc(N)c(C#N)c32)n1)[C@@H]1CCCN1C [II-82]	102 (≈ 179 µM)	72 (≈ 127 µM)	0.044	0.807	2.68	0.17	0.66	–
C[C@H](Oc1cc(N2CCN(C)CC2)nc(-c2noc3c2CCC[C@@]32CCCc3sc(N)c(C#N)c32)n1)[C@@H]1CCCN1C [II-55]	> 172	> 161	0.302	0.588	4.91	0.754	0.26	–
C[C@H](Oc1cc(N2CCNC[C@]23CCOC3)nc(-c2noc3c2CCC[C@@]32CCCc3sc(N)c(C#N)c32)n1)[C@@H]1CCCN1C [II-50]	> 144	> 135	0.393	2.71	2.68	0.802	0.38	–
C[C@H](Oc1cc(N2CCNC3(CC3)C2)nc(-c2onc3c2CCC[C@@]32CCCc3sc(N)c(C#N)c32)n1)[C@@H]1CCCN1C [I-5]	> 138	> 123	0.253	0.852	2.42	0.987	0.51	0.813
C[C@H](Oc1cc(-c2ccn(C3COC3)n2)nc(-c2noc3c2CCC[C@@]32CCCc3sc(N)c(C#N)c32)n1)[C@@H]1CCCN1C [II-109]	117 (≈ 191 µM)	61 (≈ 99.5 µM)	0.018	0.078	0.441	0.106	0.18	–

Compounds with a lower IC50 [2], results first:

solubility at 24 h [1, 4] [µg/mL]	solubility at 24 h [1, 5] [µg/mL]	IC50 [2] [µM]	IC50 (NCI-H358 cells; [6]) [µM]	IC50 (NCI-H2122 cells) [µM]	IC50 (SK-CO-1 cells) [µM]	fraction unbound [3]	IC50 (NCI-H358 cells; [7]) [µM]	Compound
109 (≈ 181 µM)	69 (≈ 115 µM)	0.011	0.268	0.58	0.057	0.4	–	COCc1cn(-c2cc(O[C@@H](C)[C@@H]3CCCN3C)nc(-c3noc4c3CCC[C@@]43CCCc4sc(N)c(C#N)c43)n2)nn1 [II-121]
> 126	> 122	0.003	0.02	0.834	0.019	0.31	0.02	C[C@H](Oc1cc([C@@H]2CCOC2)nc(-c2noc3c2CCC[C@@]32CCCc3sc(N)c(C#N)c32)n1)[C@@H]1CCCN1C [II-94]
112 (≈ 196 µM)	60 (≈ 105 µM)	0.014	0.993	2.08	0.121	0.34	–	C[C@H](Oc1cc(-c2cnn(C)n2)nc(-c2noc3c2CCC[C@@]32CCCc3sc(N)c(C#N)c32)n1)[C@@H]1CCCN1C [II-86]
> 122	91 (≈ 155 µM)	0.014	0.01	3.13	0.023	0.16	0.049	C[C@H](Oc1cc(N2CCN(C)C2=O)nc(-c2noc3c2CCC[C@@]32CCCc3sc(N)c(C#N)c32)n1)[C@@H]1CCCN1C [II-75]
< 1	< 1	0.006	0.042	0.251	0.037	0.04	–	C[C@H](Oc1cc(-n2ccc(-c3ccccn3)n2)nc(-c2noc3c2CCC[C@@]32CCCc3sc(N)c(C#N)c32)n1)[C@@H]1CCCN1C [II-119]
108 (≈ 194 µM)	76 (≈ 137 µM)	0.007	0.29	0.515	0.115	0.45	–	C[C@H](Oc1cc(-n2ccnc2)nc(-c2noc3c2CCC[C@@]32CCCc3sc(N)c(C#N)c32)n1)[C@@H]1CCCN1C [II-69]
> 143	> 134	0.011	0.009	1.78	0.04	0.16	0.051	C[C@H](Oc1cc(N2CCOC3(COC3)C2)nc(-c2noc3c2CCC[C@@]32CCCc3sc(N)c(C#N)c32)n1)[C@@H]1CCCN1C [II-77]
122 (≈ 198 µM)	98 (≈ 159 µM)	0.01	0.823	0.961	0.052	0.44	–	CNC(=O)c1cn(-c2cc(O[C@@H](C)[C@@H]3CCCN3C)nc(-c3noc4c3CCC[C@@]43CCCc4sc(N)c(C#N)c43)n2)nn1 [II-122]
57 (≈ 99.9 µM)	29 (≈ 50.8 µM)	0.011	1.68	2.86	0.052	0.48	–	C[C@H](Oc1cc(-c2cnn(C)c2)nc(-c2noc3c2CCC[C@@]32CCCc3sc(N)c(C#N)c32)n1)[C@@H]1CCCN1C [II-74]
118 (≈ 196 µM)	< 1	0.008	0.019	1.09	0.078	0.08	0.078	CO[C@@H]1C[C@@H]([C@H](C)Oc2cc(-c3ccn(C)n3)nc(-c3noc4c3CCC[C@@]43CCCc4sc(N)c(C#N)c43)n2)N(C)C1 [II-91]
> 183	> 147	0.006	0.098	0.047	0.024	0.19	–	C[C@H](Oc1cc(-c2ccn(C[C@@H](C)O)n2)nc(-c2noc3c2CCC[C@@]32CCCc3sc(N)c(C#N)c32)n1)[C@@H]1CCCN1C [II-117]
